Experimental data from ChEMBL document CHEMBL4400557, “The potential of click reactions for the synthesis of bioactive triterpenes” (Bioorg Med Chem Lett, 2019).

What was measured:
[1] = Inhibition of rabbit muscle glycogen phosphorylase; design: species or system Oryctolagus cuniculus
[2] = test system: AGS; test: Antiproliferative activity against human AGS cells after 3 days by MTT assay; format: functional, cell-based; conditions: 72 h
[3] = test system: Human immunodeficiency virus 1; test: Antiviral activity against HIV-1 NL4-3; format: functional, organism-based; conditions: Human immunodeficiency virus 1, NL4-3
[4] = test system: KB; test: Antiproliferative activity against human KB cells; format: functional, cell-based
[5] = test system: MDA-MB-231; test: Antiproliferative activity against human MDA-MB-231 cells by SRB assay; format: functional
[6] = Inhibition of glycogen phosphorylase (unknown origin); design: species or system Homo sapiens
[7] = test system: CCRF-CEM; test: Cytotoxicity in human CCRF-CEM cells incubated for 72 hrs by SRB assay; format: functional, cell-based
[8] = test system: HT-1080; test: Antiproliferative activity against human HT1080 cells after 72 hrs by MTT assay; format: functional, cell-based; conditions: HT-1080, 72 h
[9] = Antiproliferative activity against human A375-S2 cells after 72 hrs by MTT assay; format: functional, cell-based; conditions: A375-S2, 72 h
[10] = test system: HL-60; test: Antiproliferative activity against human HL60 cells by MTT assay; format: functional, cell-based

CCCCCCCCC(=O)OCc1cn(CC(=O)O[C@H]2CC[C@]3(C)[C@H]4CC=C5[C@@H]6CC(C)(C)CC[C@]6(C(=O)O)CC[C@@]5(C)[C@]4(C)CC[C@H]3C2(C)C)nn1
IC50 [1]: 5.4 µM

CC1(C)CC[C@]2(C(=O)O)CC[C@]3(C)C(=CC[C@@H]4[C@@]5(C)CC[C@H](OC(=O)CCc6cn(Cc7ccc(Cl)cc7)nn6)C(C)(C)[C@@H]5CC[C@]43C)[C@@H]2C1
IC50 [2]: 8.9 µM

C=C(C)[C@@H]1CC[C@]2(C(=O)O[Si](c3ccccc3)(c3ccccc3)C(C)(C)C)CC[C@]3(C)[C@H](CC[C@@H]4[C@@]5(C)CC[C@H](O)C(C)(C)[C@@H]5CC[C@]43C)[C@@H]12
IC50 [3]: 0.19 µM

C=C(C)[C@@H]1CC[C@]2(C(=O)NCc3cn(C4CC(n5cc(C)c(=O)[nH]c5=O)OC4CO)nn3)CC[C@]3(C)[C@H](CC[C@@H]4[C@@]5(C)CC[C@H](OC(=O)CC(=O)OC)C(C)(C)[C@@H]5CC[C@]43C)[C@@H]12 (stereo partly specified)
IC50 [4]: 8.1 µM

C[C@H]1[C@H](C)CC[C@]2(C(=O)OCCCn3cc(COC(=O)[C@]45CC[C@@H](C)[C@H](C)[C@H]4C4=CC[C@@H]6[C@@]7(C)CC[C@H](O)C(C)(C)[C@@H]7CC[C@@]6(C)[C@]4(C)CC5)nn3)CC[C@]3(C)C(=CC[C@@H]4[C@@]5(C)CC[C@H](O)C(C)(C)[C@@H]5CC[C@]43C)[C@H]12
GI50 [5]: 1.4 µM

CO[C@H]1O[C@H](Cn2cc(COC(=O)[C@]34CCC(C)(C)C[C@H]3C3=CC[C@@H]5[C@@]6(C)CC[C@H](O)C(C)(C)[C@@H]6CC[C@@]5(C)[C@]3(C)CC4)nn2)[C@@H](O)[C@H](O)[C@H]1O
IC50 [6]: 1.4 µM

C=C(Cn1cc(-c2ccccc2C=O)nn1)[C@@H]1CC[C@]2(C(=O)O)CC[C@]3(C)[C@H](CC[C@@H]4[C@@]5(C)CC[C@H](OC(C)=O)C(C)(C)[C@@H]5CC[C@]43C)[C@@H]12
IC50 [7]: 3.3 µM

CC1(C)CC[C@]2(C(=O)OCc3cn(-c4ccc([N+](=O)[O-])cc4)nn3)CC[C@]3(C)C(=CC[C@@H]4[C@@]5(C)CC[C@H](O)C(C)(C)[C@@H]5CC[C@]43C)[C@@H]2C1
IC50 [8]: 3.51 µM
IC50 [9]: 4.97 µM

CC1(C)CC[C@]2(C(=O)O)CC[C@]3(C)C(=CC[C@@H]4[C@@]5(C)CC[C@H](OCc6cn(CCCCCCn7cc(CO[C@H]8CC[C@]9(C)[C@H]%10CC=C%11[C@@H]%12CC(C)(C)CC[C@]%12(C(=O)O)CC[C@@]%11(C)[C@]%10(C)CC[C@H]9C8(C)C)nn7)nn6)C(C)(C)[C@@H]5CC[C@]43C)[C@@H]2C1
IC50 [6]: 2.59 µM

C=C(Cn1cc(-c2ccc(F)cc2)nn1)[C@@H]1CC[C@]2(C(=O)O)CC[C@]3(C)[C@H](CC[C@@H]4[C@@]5(C)CC[C@H](O)C(C)(C)[C@@H]5CC[C@]43C)[C@@H]12
IC50 [10]: 1.7 µM
